From patent US10793530B2, “Benzylaminopyrazinylcyclopropanecarboxylic acids, pharmaceutical compositions and uses thereof” (Boehringer Ingelheim International GmbH, priority 2017, dated 2020)
Converted amounts (≈) assume the structure as drawn.

Assays:
[1] = Aqueous solubility (buffer vs acetonitrile/water, LC-UV); format: physicochemical; conditions: kinetic from dmso stock, buffer pH 6.8, 24 h of shaking, DMSO concentration of 2.5%
Description: The aqueous solubility of the compounds of the invention is determined by comparing the amount dissolved in buffer to the amount in an acetonitrile/water (1/1) solution. Starting from a 10 mM DMSO stock solution aliquots are diluted with acetonitrile/water (1/1) or buffer, respectively. After 24 h of shaking, the solutions are filtrated and analyzed by LC-UV. The amount dissolved in buffer is compared to the amount in the acetonitrile solution. Solubility is usually being measured from 0.001 to 0.125 mg/mL at a DMSO concentration of 2.5%. If more than 90% of the compound is dissolved in buffer, the value is marked with “>”.

human GPR40 receptor = human GPR40 receptor (Homo sapiens, UniProt O14842); test: IP1 accumulation measurements using the IPOne assay system; format: cell-based; conditions: 1321N1 cells stably expressing human GPR40 receptor; stimulated 1 h at 37° C.
Chain of human GPR40 receptor (O14842 whole entry): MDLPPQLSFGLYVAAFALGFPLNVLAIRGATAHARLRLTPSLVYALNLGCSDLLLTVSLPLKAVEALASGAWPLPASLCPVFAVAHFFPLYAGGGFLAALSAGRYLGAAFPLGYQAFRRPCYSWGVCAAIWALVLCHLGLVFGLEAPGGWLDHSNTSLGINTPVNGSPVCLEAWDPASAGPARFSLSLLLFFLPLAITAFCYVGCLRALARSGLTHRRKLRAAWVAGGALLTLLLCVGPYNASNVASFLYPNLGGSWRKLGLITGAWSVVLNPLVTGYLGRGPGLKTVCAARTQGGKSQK
Description: IP1 is assayed according to the manufacturers description (Cisbio Bioassays, France). In brief, the assay is started by substitution of the culture medium by stimulation buffer (Hepes 10 mM, CaCl2 1 mM, MgCl2 0.5 mM, KCl 4.2 mM, NaCl 146 mM, glucose 5.5 mM and LiCl 50 mM, pH 7.4). Cells are stimulated for 1 h at 37° C., 5% CO2 by addition of the compounds that are diluted in stimulation buffer containing LiCl. Assays are stopped by adding HTRF-conjugates (IP1-d2 and Anti-IP1 cryptate Tb) and lysis buffer, provided by the manufacturer. After an incubation time of 1 h at room temperature plates are measured using an EnVision™, Perkin Elmer. The obtained fluorescence ratios at 665/615 […] are then used to calculate the pEC50 values using Assay Explorer 3.3 Software (Accelrys, Inc.) by interpolation using an IP1 reference curve and subsequent sigmoidal curve fitting allowing for a variable hill slope.

| solubility at 24 h [1] [µg/mL] | EC50 (human GPR40 receptor) [nM] | SMILES |
| --- | --- | --- |
| < 1 | – | Cc1cc(-c2nnn(C)n2)cc(C)c1-c1ccc(F)c2c1CC[C@H]2Oc1ccc([C@H]2C[C@@H]2C(=O)O)cc1 [Example 45 in WO 2013/178575, reference compound] |
| 47 (≈ 99.3 µM) | 6 | Cc1cc(-c2nnn(C)n2)cc(C)c1-c1ccc(F)c(CNc2cnc([C@H]3C[C@@H]3C(=O)O)cn2)c1 [Example 26] |
| 72 (≈ 146 µM) | 16 | Cc1cc(OCCC(C)(C)O)cc(C)c1-c1ccc(F)c(CNc2cnc([C@H]3C[C@@H]3C(=O)O)cn2)c1 [Example 19] |
